Assay results from patent US20190185865A1, “USE OF PROKARYOTIC TRANSCRIPTIONAL ACTIVATORS AS METABOLITE BIOSENSORS IN EUKARYOTIC CELLS” (Danmarks Tekniske Universitet, priority 2016, published 2019).

Target: T1, BenM (Acinetobacter baylyi, UniProt O68014)
T1 construct: expressed in transfected cells; host or cells: Saccharomyces cerevisiae CEN.PK113-5A, chromosomal integration; promoters TDH3p, TEF1p, RNR2p or REV1p
Assay: CCM-induced GFP expression in yeast strains combining BenM expression cassettes and CYC1p reporter promoter variants (flow cytometry)
Format: cell-based, Saccharomyces cerevisiae
Conditions: for FC (+/−CCM): 1.4 mM CCM, 24 h
Source text: Strains, chemicals and media. Saccharomyces cerevisiae CEN.PK102-5B (MATa ura3-52 his3Δ1 leu2-3/112 MAL2-8^c SUC2), CEN.PK113-5A (MATa, trp1 his3Δ1 leu2-3/112 MAL2-8^c SUC2) and CEN.PK113-7D (wild type, MATa MAL2-8^c SUC2) strains were obtained from Peter Kotter (Johann Wolfgang Goethe-University Frankfurt, Germany). In principal any other yeast strains may be used, such as one obtained from public repository EuroScarf. EasyClone plasmids used in this work are described in Jensen, N. B. et al. EasyClone: method for iterative chromosomal integration of multiple genes in Saccharomyces cerevisiae. FEMS Yeast Res. 14, 238-48 (2014). Escherichia coli strain DH5a was used as a host for cloning and plasmid propagation. The chemicals and Pfu TURBO DNA polymerase were commercially obtained (Sigma-Aldrich and Agilent Technologies Inc., respectively). All acids used were >97% in purity. S. cerevisiae cells were grown at 30° C. in synthetic complete medium as well as drop-out media and agar plates were prepared using pre-mixed drop-out powders (Sigma-Aldrich). Mineral medium was freshly prepared as described previously. For all media containing diacids, 1.4 mM of the individual diacids were dissolved in mineral medium and pH adjusted to 4.5 before sterile filtration. For CCM several dilutions were made to examine the performance of the CCM biosensor. For naringenin, mineral medium was supplemented with 0, 0.05, 0.10 or 0.20 mM naringenin, dissolved in ethanol, the final ethanol concentration for each medium was 2% (v/v), and the final pH of the medium was adjusted to 6.0. E. coli cells were grown at 37° C. in Luria-Bertani (LB) medium supplemented with 100 μg/mL ampicillin.
Events were analyzed using FlowJo software (TreeStar Inc.).

[1] = strain MeLS0162, RNR2p-BenM + 249bp_CYC1p:GFP
[2] = strain MeLS0163, RNR2p-BenM + 209bp_CYC1p:GFP
[3] = strain MeLS0164, TDH3p-BenM + 491bp_CYC1p:GFP
[4] = strain MeLS0165, TDH3p-BenM + 272bp_CYC1p:GFP
[5] = strain MeLS0166, TDH3p-BenM + 249bp_CYC1p:GFP
[6] = strain MeLS0167, TDH3p-BenM + 209bp_CYC1p:GFP
[7] = strain MeLS0168, TEF1p-BenM + 491bp_CYC1p_BenO_T1:GFP
[8] = strain MeLS0169, TEF1p-BenM + 249bp_CYC1p_BenO_T1:GFP
[9] = strain MeLS0170, RNR2p-BenM + 491bp_CYC1p_BenO_T1:GFP
[10] = strain MeLS0171, RNR2p-BenM + 249bp_CYC1p_BenO_T1:GFP
[11] = strain MeLS0172, TDH3p-BenM + 491bp_CYC1p_BenO_T1:GFP
[12] = strain MeLS0173, TDH3p-BenM + 249bp_CYC1p_BenO_T1:GFP
[13] = strain MeLS0182, TEF1p-BenM + 272bp_CYC1p_BenO_T2:GFP
[14] = strain MeLS0183, TEF1p-BenM + 272bp_CYC1p_BenO_T1/T2:GFP
[15] = strain MeLS0184, TEF1p-BenM + 249bp_CYC1p_BenO_T2:GFP
[16] = strain MeLS0185, TEF1p-BenM + 249bp_CYC1p_BenO_T1/T2:GFP
[17] = strain MeLS0186, REV1p-BenM + 272bp_CYC1p_BenO_T2:GFP
[18] = strain MeLS0187, REV1p-BenM + 272bp_CYC1p_BenO_T1/T2:GFP
[19] = strain MeLS0188, REV1p-BenM + 249bp_CYC1p_BenO_T2:GFP
[20] = strain MeLS0189, REV1p-BenM + 249bp_CYC1p_BenO_T1/T2:GFP
[21] = strain MeLS0190, TDH3p-BenM + 272bp_CYC1p_BenO_T2:GFP
[22] = strain MeLS0191, TDH3p-BenM + 272bp_CYC1p_BenO_T1/T2:GFP
[23] = strain MeLS0192, TDH3p-BenM + 249bp_CYC1p_BenO_T2:GFP
[24] = strain MeLS0193, TDH3p-BenM + 249bp_CYC1p_BenO_T1/T2:GFP
[25] = strain MeLS0195, RNR2p-BenM + 272bp_CYC1p_BenO_T1/T2:GFP
[26] = strain MeLS0196, RNR2p-BenM + 249bp_CYC1p_BenO_T2:GFP
[27] = strain MeLS0197, RNR2p-BenM + 249bp_CYC1p_BenO_T1/T2:GFP
[28] = strain MeLS0263, TDH3p-BenM + 491bp_CYC1p_BenO_T2:GFP
[29] = strain MeLS0264, TDH3p-BenM + 209bp_CYC1p_BenO_T2:GFP
[30] = strain MeLS0265, RNR2p-BenM + 491bp_CYC1p_BenO_T2:GFP
[31] = strain MeLS0266, RNR2p-BenM + 209bp_CYC1p_BenO_T2:GFP
[32] = strain MeLS0267, TDH3p-BenM + 491bp_CYC1p_BenO_T1/T2:GFP
[33] = strain MeLS0268, TDH3p-BenM + 209bp_CYC1p_BenO_T1/T2:GFP
[34] = strain MeLS0269, RNR2p-BenM + 491bp_CYC1p_BenO_T1/T2:GFP
[35] = strain MelS0194, RNR2p-BenM + 272bp_CYC1p_BenO_T2:GFP

T1 sequence (O68014 whole entry): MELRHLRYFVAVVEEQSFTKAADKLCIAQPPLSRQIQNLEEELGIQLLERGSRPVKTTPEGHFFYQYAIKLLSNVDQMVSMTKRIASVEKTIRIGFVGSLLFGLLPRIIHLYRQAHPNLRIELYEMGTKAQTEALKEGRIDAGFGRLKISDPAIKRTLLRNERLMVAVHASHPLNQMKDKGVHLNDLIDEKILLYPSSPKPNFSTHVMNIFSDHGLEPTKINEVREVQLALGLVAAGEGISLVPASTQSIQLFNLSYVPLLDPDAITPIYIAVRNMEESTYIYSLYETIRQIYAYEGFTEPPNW

For `O=C(O)/C=C\C=C/C(=O)O` [CCM, cis, cis-muconic acid], the “Mean fluorescense intensities of GFP (24 h), CCM (1.4 mM)” value (from here on “Mean fluorescense intensities of GFP”) [1] was 164, the “FC (+/−CCM)” value [1] was 1.121 and the “Mean fluorescense intensities of GFP” value [2] was 164. The “FC (+/−CCM)” value [2] was 1.121, the “Mean fluorescense intensities of GFP” value [3] was 4509 and the “FC (+/−CCM)” value [3] was 1.126. For the same compound, the “Mean fluorescense intensities of GFP” value [4] was 216, the “FC (+/−CCM)” value [4] was 1.157 and the “Mean fluorescense intensities of GFP” value [5] was 205. For the same compound, the “FC (+/−CCM)” value [5] was 1.131, the “Mean fluorescense intensities of GFP” value [6] was 194 and the “FC (+/−CCM)” value [6] was 1.09. For the same compound, the “Mean fluorescense intensities of GFP” value [7] was 20250, the “FC (+/−CCM)” value [7] was 1.312 and the “Mean fluorescense intensities of GFP” value [8] was 2913. The “FC (+/−CCM)” value [8] was 4.337, the “Mean fluorescense intensities of GFP” value [9] was 6114 and the “FC (+/−CCM)” value [9] was 1.089. The “Mean fluorescense intensities of GFP” value [10] was 290, the “FC (+/−CCM)” value [10] was 1.549 and the “Mean fluorescense intensities of GFP” value [11] was 10605. For the same compound, the “FC (+/−CCM)” value [11] was 1.538, the “Mean fluorescense intensities of GFP” value [12] was 3554 and the “FC (+/−CCM)” value [12] was 4.707. The “Mean fluorescense intensities of GFP” value [13] was 211, the “FC (+/−CCM)” value [13] was 1.155 and the “Mean fluorescense intensities of GFP” value [14] was 511. The “FC (+/−CCM)” value [14] was 1.969, the “Mean fluorescense intensities of GFP” value [15] was 475 and the “FC (+/−CCM)” value [15] was 1.653. The “Mean fluorescense intensities of GFP” value [16] was 9992, the “FC (+/−CCM)” value [16] was 3.797 and the “Mean fluorescense intensities of GFP” value [17] was 197. For the same compound, the “FC (+/−CCM)” value [17] was 1.201, the “Mean fluorescense intensities of GFP” value [18] was 370 and the “FC (+/−CCM)” value [18] was 1.789. The “Mean fluorescense intensities of GFP” value [19] was 194, the “FC (+/−CCM)” value [19] was 1.215 and the “Mean fluorescense intensities of GFP” value [20] was 181. The “FC (+/−CCM)” value [20] was 1.22, the “Mean fluorescense intensities of GFP” value [21] was 218 and the “FC (+/−CCM)” value [21] was 1.088. The “Mean fluorescense intensities of GFP” value [22] was 691, the “FC (+/−CCM)” value [22] was 1.892 and the “Mean fluorescense intensities of GFP” value [23] was 978. The “FC (+/−CCM)” value [23] was 1.761, the “Mean fluorescense intensities of GFP” value [24] was 1630 and the “FC (+/−CCM)” value [24] was 4.004. The “Mean fluorescense intensities of GFP” value [25] was 199, the “FC (+/−CCM)” value [25] was 1.238 and the “Mean fluorescense intensities of GFP” value [26] was 349. For the same compound, the “FC (+/−CCM)” value [26] was 1.575, the “Mean fluorescense intensities of GFP” value [27] was 256 and the “FC (+/−CCM)” value [27] was 1.571. The “Mean fluorescense intensities of GFP” value [28] was 1197, the “FC (+/−CCM)” value [28] was 1.898 and the “Mean fluorescense intensities of GFP” value [29] was 527. The “FC (+/−CCM)” value [29] was 1.495, the “Mean fluorescense intensities of GFP” value [30] was 698 and the “FC (+/−CCM)” value [30] was 1.513. The “Mean fluorescense intensities of GFP” value [31] was 179, the “FC (+/−CCM)” value [31] was 1.072 and the “Mean fluorescense intensities of GFP” value [32] was 2218. For the same compound, the “FC (+/−CCM)” value [32] was 2.64, the “Mean fluorescense intensities of GFP” value [33] was 2172 and the “FC (+/−CCM)” value [33] was 3.25. For the same compound, the “Mean fluorescense intensities of GFP” value [34] was 2589, the “FC (+/−CCM)” value [34] was 2.005 and the “Mean fluorescense intensities of GFP” value [35] was 258. The “FC (+/−CCM)” value [35] was 1.065 and the “specificity of GFP induction among diacids tested” value (wild-type BenM, diacids 1.4 mM, pH 4.5, 24 h) was “induce GFP expression specifically in response to CCM”.
